Read-outs that look alike come from different tables or passages of the source.
Experiments:
[1] = target: T1, F1F0-ATPase (Bos taurus, UniProt P13621); experiment: Inhibition of F1F0-ATPase activity in synthesizing ATP; format: biochemical; settings: inhibition of ATP synthesis by F1F0-ATPase; read-out: ATP Syn IC50
T1 construct: from tissue

[2] = system: Ramos cells; experiment: Cytotoxicity in Ramos cells; format: cell-based; settings: read-out: Ramos Cell EC50
[3] = Homo sapiens, cytotoxicity in Ramos cells

Row | Structure (SMILES) | IC50 [1] | EC50 [2, 3] | EC50 ([2]; Homo sapiens, Ramos) | EC50 ([2]; cytotoxicity in Ramos cells)
1 | C[C@H](N/C(=N/C(=O)c1ccc(F)c(F)c1)Nc1cc(C(F)(F)F)[nH]n1)c1ccc(Cl)cc1 [Compound A-47] | < 10 µM | < 10 µM | – | –
2 | CC(C)N/C(=N/C(=O)c1ccc(Cl)c(F)c1)Nc1cc(C(F)(F)F)n[nH]1 [Compound A-113] | < 10 µM | < 10 µM | – | –
3 | CC(N/C(=N/C(=O)c1ccc(Cl)cc1)Nc1cc(C(F)(F)F)[nH]n1)c1ccc(Cl)cc1 (stereo not drawn) [Compound A-36] | < 10 µM | < 10 µM | – | –
4 | CC(C)NC(=NC(=O)c1cccc(C#N)c1)Nc1cc(-c2ccc(F)cc2)n[nH]1 [Compound A-127] | < 10 µM | > 10 µM | – | –
5 | N#Cc1cccc(C(=O)/N=C(/NCc2ccc(F)cc2Cl)Nc2cc(C(F)(F)F)[nH]n2)c1 [Compound A-82] | < 10 µM | – | < 10 µM | –
6 | CC(C)(CO)N/C(=N/C(=O)c1ccc(F)cc1)Nc1cc(C(F)(F)F)[nH]n1 [Compound A-531] | < 10 µM | – | – | > 10 µM
7 | Cc1cc(N/C(=N\C(=O)c2ccc(F)c(F)c2)NCC(C)(C)C)n[nH]1 [Compound A-187] | < 10 µM | – | – | < 10 µM
8 | COc1cccc(F)c1C(=O)/N=C(\Nc1cc(-c2ccc(F)cc2)n[nH]1)NC(C)(C)C [Compound A-387] | < 10 µM | – | – | > 10 µM
9 | O=C(/N=C(\Nc1cc(-c2cccc(Cl)c2)n[nH]1)NC1CCOCC1)c1ccc(Cl)c(F)c1 [Compound A-463] | < 10 µM | – | – | > 10 µM
10 | O=C(N=C(Nc1cc(C(F)(F)F)n[nH]1)NC1CCC(O)CC1)c1ccc(F)c(F)c1 (stereo not drawn) [Compound A-559] | > 10 µM | > 10 µM | – | –
11 | CC(C)CNC(=NC(=O)c1ccc(F)c(F)c1)Nc1cc(-c2cc(F)cc(F)c2)n[nH]1 [Compound A-364] | < 10 µM | < 10 µM | – | –
12 | O=C(/N=C(\Nc1cc(C(F)(F)F)n[nH]1)NC1CCC1)c1ccc(C(F)(F)F)cc1 [Compound A-91] | < 10 µM | < 10 µM | – | –
13 | COCC(C)NC(=NC(=O)c1ccc(F)c(F)c1)Nc1cc(-c2cc(F)cc(Cl)c2)n[nH]1 (stereo not drawn) [Compound A-246] | < 10 µM | < 10 µM | – | –
14 | COc1ccc(C(=O)N=C(Nc2cc(-c3ccc(F)cc3)n[nH]2)NC2CCCC2)cc1 [Compound A-518] | < 10 µM | < 10 µM | – | –
15 | COc1ccc(CN/C(=N/C(=O)c2ccccc2)Nc2cc(C(F)(F)F)[nH]n2)cc1 [Compound A-425] | < 10 µM | – | – | < 10 µM
16 | CCC(C)CNC(=NC(=O)c1cccc(C#N)c1)Nc1cc(-c2ccc(Cl)cc2)n[nH]1 (stereo not drawn) [Compound A-300] | < 10 µM | < 10 µM | – | –
17 | CC(C)(C)CN/C(=N/C(=O)c1ccc(C(F)F)cc1)Nc1cc(C(F)(F)F)[nH]n1 [Compound A-66] | < 10 µM | < 10 µM | – | –
18 | CC(C)N/C(=N/C(=O)c1ccc(C(F)(F)F)cc1)Nc1cc(-c2ccc(Cl)cc2)n[nH]1 [Compound A-241] | < 10 µM | – | – | < 10 µM
19 | O=C(/N=C(\Nc1cc(-c2ccc(Cl)cc2)n[nH]1)NC1CCOCC1)c1ccc(Cl)c(F)c1 [Compound A-464] | > 10 µM | – | – | > 10 µM
20 | CC(N/C(=N/C(=O)c1ccc(F)c(F)c1)Nc1cc(C(F)(F)F)[nH]n1)c1ccccc1Cl (stereo not drawn) [Compound A-28] | < 10 µM | < 10 µM | – | –

Row | Structure (SMILES) | IC50 [1] | EC50 [2, 3] | EC50 ([2]; Homo sapiens, Ramos) | EC50 ([2]; cytotoxicity in Ramos cells)
21 | CC(C)(C)N/C(=N/C(=O)c1ccc(O)cc1)Nc1cc(-c2ccc(F)cc2)n[nH]1 [Compound A-509] | < 10 µM | – | – | < 10 µM
22 | C[C@@H](N/C(=N\C(=O)c1ccc(F)c(F)c1)Nc1cc(C(F)(F)F)n[nH]1)C1CCCCC1 [Compound A-102] | < 10 µM | < 10 µM | – | –
23 | O=C(/N=C(\Nc1cc(-c2ccc(Cl)cc2)n[nH]1)NC1CCC1)c1ccc(C(F)(F)F)cc1 [Compound A-236] | < 10 µM | – | – | < 10 µM
24 | CCC(C)N/C(=N/C(=O)c1ccc(F)cc1)Nc1cc(-c2ccc(F)cc2)n[nH]1 (stereo not drawn) [Compound A-206] | < 10 µM | < 10 µM | – | –
25 | CCCC(C)NC(=NC(=O)c1ccc(Cl)c(F)c1)Nc1cc(-c2cc(F)cc(F)c2)n[nH]1 (stereo not drawn) [Compound A-348] | < 10 µM | < 10 µM | – | –
26 | CC(C)N/C(=N/C(=O)c1ccc(Cl)cc1)Nc1cc(-c2ccc(F)cc2)n[nH]1 [Compound A-250] | < 10 µM | – | – | < 10 µM
27 | O=C(/N=C(/NCC1CCCCO1)Nc1cc(-c2ccc(F)cc2)n[nH]1)c1ccc(F)cc1 (stereo not drawn) [Compound A-208] | > 10 µM | – | – | > 10 µM
28 | O=C(N=C(NCc1ccc(F)cc1Cl)Nc1cc(-c2ccc(F)cc2)n[nH]1)c1ccc(F)c(F)c1 [Compound A-440] | < 10 µM | < 10 µM | – | –
29 | COC(=O)c1cc(NC(=NC(=O)c2ccc(C(F)(F)F)cc2)NCc2ccc(F)cc2Cl)[nH]n1 [Compound A-338] | < 10 µM | < 10 µM | – | –
30 | COC[C@H](C)N/C(=N/C(=O)c1cccc(C#N)c1)Nc1cc(-c2ccc(F)cc2)[nH]n1 [Compound A-526] | < 10 µM | – | – | > 10 µM
31 | COc1ccc(-c2cc(N/C(=N\C(=O)c3ccc(C(F)(F)F)cc3)NC3CCCC3)[nH]n2)cc1F [Compound A-574] | < 10 µM | – | – | > 10 µM
32 | Cc1cc(N/C(=N\C(=O)c2ccc(C(F)(F)F)cc2)NCC(C)C)n[nH]1 [Compound A-189] | < 10 µM | – | – | < 10 µM
33 | O=C(/N=C(\Nc1cc(C(F)(F)F)n[nH]1)NC1CCC1)c1ccc(Cl)cc1 [Compound A-108] | < 10 µM | < 10 µM | – | –
34 | CC(C)(C)c1cc(N/C(=N\C(=O)c2ccc(Cl)cc2)NC(C2CC2)C2CC2)n[nH]1 [Compound A-15] | < 10 µM | < 10 µM | – | –
35 | COc1cccc(C(=O)N=C(NCC(C)(C)C)Nc2cc(-c3ccc(F)cc3)n[nH]2)c1 [Compound A-516] | < 10 µM | < 10 µM | – | –
36 | CC(C)(C)N/C(=N/C(=O)c1ccc(F)c(F)c1)Nc1cc(-c2cccc(Cl)c2)[nH]n1 [Compound A-136] | < 10 µM | – | – | < 10 µM
37 | O=C(N=C(Nc1cc(F)cc(Cl)c1)Nc1cc(-c2cccc(Cl)c2)[nH]n1)c1ccc(C(F)(F)F)cc1 [Compound A-446] | < 10 µM | > 10 µM | – | –
38 | O=C(/N=C(\Nc1cc(C(F)(F)F)n[nH]1)NC1CCOCC1)c1ccc(C(F)(F)F)cc1 [Compound A-95] | < 10 µM | < 10 µM | – | –
39 | CC(C)CN/C(=N/C(=O)c1ccc(F)c(F)c1)Nc1cc(-c2cc(F)cc(Cl)c2)n[nH]1 [Compound A-287] | < 10 µM | – | – | < 10 µM
40 | CCC(C)NC(=NC(=O)c1cccc(C#N)c1)Nc1cc(-c2cc(F)cc(F)c2)n[nH]1 (stereo not drawn) [Compound A-313] | < 10 µM | < 10 µM | – | –

Row | Structure (SMILES) | IC50 [1] | EC50 [2, 3] | EC50 ([2]; Homo sapiens, Ramos) | EC50 ([2]; cytotoxicity in Ramos cells)
41 | O=C(/N=C(\Nc1cc(-c2ccc(Cl)cc2)n[nH]1)NC1CCCC1)c1ccc(F)cc1 [Compound A-253] | < 10 µM | – | – | < 10 µM
42 | CC(C)(C)N/C(=N/C(=O)c1cccc(C(F)(F)F)c1)Nc1cc(C(F)(F)F)[nH]n1 [Compound A-77] | < 10 µM | < 10 µM | – | –
43 | O=C(N=C(Nc1cc(F)cc(Cl)c1)Nc1cc(-c2cccc(C(F)(F)F)c2)[nH]n1)c1ccc(F)c(F)c1 [Compound A-422] | < 10 µM | < 10 µM | – | –
44 | Cc1cc(C(=O)/N=C(\Nc2cc(C(F)(F)F)[nH]n2)NC(C)(C)C)ccn1 [Compound A-84] | < 10 µM | > 10 µM | – | –
45 | O=C(/N=C(/NCc1ccc(F)cc1Cl)Nc1cc(-c2ccccc2)[nH]n1)c1ccc(Cl)c(F)c1 [Compound A-143] | < 10 µM | – | – | < 10 µM
46 | CC(C)(C)N/C(=N/C(=O)c1ccc(F)c(F)c1)Nc1cc(-c2cccc(C(F)(F)F)c2)[nH]n1 [Compound A-423] | < 10 µM | – | – | < 10 µM
47 | CC(C)(C)NC(=NC(=O)c1ccc(F)cc1)Nc1cc(-c2ccc(Cl)cc2)n[nH]1 [Compound A-135] | < 10 µM | < 10 µM | – | –
48 | Cc1cc(N/C(=N\C(=O)c2ccc(F)c(F)c2)NCCC(F)(F)F)n[nH]1 [Compound A-186] | > 10 µM | – | – | > 10 µM
49 | COC[C@H](C)NC(=NC(=O)c1ccc(F)cc1)Nc1cc(-c2ccc(F)cc2)n[nH]1 [Compound A-533] | < 10 µM | < 10 µM | – | –
50 | O=C(/N=C(\Nc1cc(-c2ccc(F)cc2)[nH]n1)NC1CC1)c1ccc(F)cc1 [Compound A-193] | < 10 µM | – | – | > 10 µM
51 | O=C(/N=C(/Nc1cc(C(F)(F)F)n[nH]1)NC1CCS(=O)(=O)C1)c1ccc(Cl)cc1 (stereo not drawn) [Compound A-112] | < 10 µM | > 10 µM | – | –
52 | N#Cc1cccc(C(=O)/N=C(\Nc2cc(-c3cc(F)cc(F)c3)n[nH]2)NC2CCCC2)c1 [Compound A-309] | < 10 µM | – | – | < 10 µM
53 | Cc1ccc(-c2cc(N/C(=N\C(=O)c3ccc(F)c(F)c3)NC(C)(C)C)[nH]n2)cc1 [Compound A-427] | < 10 µM | – | – | < 10 µM
54 | CC(CC#N)NC(=NC(=O)c1ccc(F)cc1)Nc1cc(-c2ccc(F)cc2)n[nH]1 (stereo not drawn) [Compound A-490] | < 10 µM | < 10 µM | – | –
55 | CC(C)(C)NC(=NC(=O)c1ccc(Cl)c(F)c1)Nc1cc(-c2ccc(Cl)cc2)n[nH]1 [Compound A-469] | < 10 µM | < 10 µM | – | –
56 | CC(C)(C)N/C(=N/C(=O)c1ccc(C(F)(F)F)cc1)Nc1cc(-c2ccccc2O)n[nH]1 [Compound A-563, (Z)—N-((tert-Butylamino)((3-(2-hydroxyphenyl)-1H-pyrazol-5-yl)amino)methylene)-4-(trifluoromethyl)benzamide] | < 10 µM | < 10 µM | – | –
57 | COC[C@H](C)N/C(=N/C(=O)c1ccc(Cl)c(F)c1)Nc1cc(-c2ccc(Cl)cc2)n[nH]1 [Compound A-380] | < 10 µM | – | – | < 10 µM
58 | Cc1ccc(-c2cc(N/C(=N\C(=O)c3ccc(C(F)(F)F)cc3)NC3CCCC3)[nH]n2)cc1F [Compound A-326] | < 10 µM | – | – | > 10 µM
59 | Cc1cc(C(=O)/N=C(\Nc2cc(-c3ccc(F)cc3)n[nH]2)NC(C)(C)C)ccn1 [Compound A-341] | < 10 µM | – | – | < 10 µM
60 | CCOC[C@H](C)N/C(=N/C(=O)c1ccc(F)c(F)c1)Nc1cc(-c2cc(F)cc(Cl)c2)n[nH]1 [Compound A-247] | < 10 µM | < 10 µM | – | –
